This passage reports IC50 results from ChEMBL document CHEMBL5727779, “Compounds for inhibiting AGC kinase and pharmaceutical compositions comprising the same” (2020).

In general, IC50 refers to the concentration that inhibits the measured activity by half.

The target in assay [1] is Rho-associated protein kinase 2 (Homo sapiens, UniProt O75116). Nature of the assay: (§1) ELISA Assay: ROCK Substrate Coated Plate (Part No 241601): One strip well 96-well plate pre-coated with recombinant MYPT1.Buffer: 25 mM Tris, pH 7.5, 10 mM MgCl2, 5 mM Glycerol-2-Phosphate, 0.1 mM Na3VO4; 1% DMSO; 2.5 mM DTT; (Enzyme: ROCK active-II) (Cell Biolabs, Catalog #STA-406, Part No. 241505) 0.1 ng/μl.ATP Solution (Part No. 241604): 100 mM ATP. Final concentration of ATP in reaction mixture: 250 μM.Anti-phospho-MYPT1 (Thr696) (Part No. 241603).Secondary Antibody, HRP Conjugate (Part No. 231003).Biotinylated substrate, diluted to 0.25 μM with buffer described above (without ATP).Steps:1. Purified kinase or cell lysate sample can be used directly in the kinase assay or further diluted with 1× Kinase Buffer. Each sample should be assayed in duplicate.2. Add 90 μL of the diluted active ROCK-II positive control or unknown ROCK samples to the wells of the substrate plate.3. Initiate the kinase reaction by adding 10 μL of the 10× Kinase Reaction Buffer containing DTT and ATP. Mix well.4. Cover with a plate cover and incubate the wells at 30° C. for 30-60 minutes with gentle agitation.5. Stop kinase reaction by flicking out the content or by adding 50 μL of 0.5M EDTA, pH 8.0, to each well.6. Remove the plate cover and empty wells. Wash microwell strips 3 times with 250 μL 1× Wash Buffer per well with thorough aspiration between each wash. After the last wash, empty wells and tap microwell strips on absorbent pad or paper towel to remove excess 1× Wash Buffer.7. Add 100 μL of the diluted anti-phospho-MYPT1 (Thr696) antibody to each well.8. Cover with the plate cover and incubate at room temperature for 1 hour on an orbital shaker.9. Remove the plate cover and empty wells. Wash the strip wells 3 times according to step 6 above.10. Add 100 μL of the diluted HRP-conjugated secondary antibody to each well.11. Cover with the plate cover and incubate at room temperature for 1 hour on an orbital shaker.12. Remove the plate cover and empty wells. Wash microwell strips 3 times according to step 6 above. Proceed immediately to the next step.13. Warm Substrate Solution to room temperature. Add 100 μL of Substrate Solution to each well, including the blank wells. Incubate at room temperature for 5-20 minutes on an orbital shaker.14. Stop the enzyme reaction by adding 100 μL of Stop Solution into each well, including the blank wells. Results should be read immediately (color will fade over time).15. Read absorbance of each microwell on a spectrophotometer using 450 nm as the primary wave length.
Chain of Rho-associated protein kinase 2 (O75116 whole entry): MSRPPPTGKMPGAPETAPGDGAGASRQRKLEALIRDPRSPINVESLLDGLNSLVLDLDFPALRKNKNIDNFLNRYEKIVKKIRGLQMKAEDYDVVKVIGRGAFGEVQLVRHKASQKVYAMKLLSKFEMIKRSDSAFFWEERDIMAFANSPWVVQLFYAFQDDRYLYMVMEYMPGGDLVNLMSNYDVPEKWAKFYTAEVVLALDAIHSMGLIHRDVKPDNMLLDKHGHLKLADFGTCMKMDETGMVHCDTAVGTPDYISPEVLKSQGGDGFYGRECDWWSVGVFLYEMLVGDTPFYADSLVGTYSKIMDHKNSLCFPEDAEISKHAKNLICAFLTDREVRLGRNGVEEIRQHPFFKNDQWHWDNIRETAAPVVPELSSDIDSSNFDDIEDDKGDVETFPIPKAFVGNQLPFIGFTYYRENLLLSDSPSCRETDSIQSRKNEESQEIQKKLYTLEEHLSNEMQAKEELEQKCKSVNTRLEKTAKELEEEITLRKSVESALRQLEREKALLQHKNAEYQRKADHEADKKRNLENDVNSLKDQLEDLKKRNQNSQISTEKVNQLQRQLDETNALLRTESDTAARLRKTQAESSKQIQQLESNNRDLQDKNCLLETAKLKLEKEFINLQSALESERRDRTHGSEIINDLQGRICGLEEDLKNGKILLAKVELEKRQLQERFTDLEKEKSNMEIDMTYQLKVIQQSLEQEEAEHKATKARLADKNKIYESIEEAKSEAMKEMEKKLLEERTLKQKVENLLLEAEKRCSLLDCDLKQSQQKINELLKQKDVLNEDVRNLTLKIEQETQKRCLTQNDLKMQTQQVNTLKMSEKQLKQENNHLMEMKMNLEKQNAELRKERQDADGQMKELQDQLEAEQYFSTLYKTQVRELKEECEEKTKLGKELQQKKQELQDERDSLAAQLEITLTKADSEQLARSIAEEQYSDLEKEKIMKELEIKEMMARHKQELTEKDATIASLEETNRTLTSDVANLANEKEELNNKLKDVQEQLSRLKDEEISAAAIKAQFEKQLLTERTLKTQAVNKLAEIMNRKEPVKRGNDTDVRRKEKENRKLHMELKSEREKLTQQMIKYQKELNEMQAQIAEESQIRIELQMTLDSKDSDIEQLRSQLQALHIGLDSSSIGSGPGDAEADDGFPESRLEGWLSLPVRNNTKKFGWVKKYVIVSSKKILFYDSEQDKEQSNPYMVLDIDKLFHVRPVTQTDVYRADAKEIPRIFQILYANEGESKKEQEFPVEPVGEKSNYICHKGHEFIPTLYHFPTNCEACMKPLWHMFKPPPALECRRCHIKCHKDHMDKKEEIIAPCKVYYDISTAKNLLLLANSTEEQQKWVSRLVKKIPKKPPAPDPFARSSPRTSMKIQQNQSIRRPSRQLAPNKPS

The target in assay [2] is Rho-associated protein kinase 1 (Homo sapiens, UniProt Q13464). Described as §1.
Chain of Rho-associated protein kinase 1 (Q13464 whole entry): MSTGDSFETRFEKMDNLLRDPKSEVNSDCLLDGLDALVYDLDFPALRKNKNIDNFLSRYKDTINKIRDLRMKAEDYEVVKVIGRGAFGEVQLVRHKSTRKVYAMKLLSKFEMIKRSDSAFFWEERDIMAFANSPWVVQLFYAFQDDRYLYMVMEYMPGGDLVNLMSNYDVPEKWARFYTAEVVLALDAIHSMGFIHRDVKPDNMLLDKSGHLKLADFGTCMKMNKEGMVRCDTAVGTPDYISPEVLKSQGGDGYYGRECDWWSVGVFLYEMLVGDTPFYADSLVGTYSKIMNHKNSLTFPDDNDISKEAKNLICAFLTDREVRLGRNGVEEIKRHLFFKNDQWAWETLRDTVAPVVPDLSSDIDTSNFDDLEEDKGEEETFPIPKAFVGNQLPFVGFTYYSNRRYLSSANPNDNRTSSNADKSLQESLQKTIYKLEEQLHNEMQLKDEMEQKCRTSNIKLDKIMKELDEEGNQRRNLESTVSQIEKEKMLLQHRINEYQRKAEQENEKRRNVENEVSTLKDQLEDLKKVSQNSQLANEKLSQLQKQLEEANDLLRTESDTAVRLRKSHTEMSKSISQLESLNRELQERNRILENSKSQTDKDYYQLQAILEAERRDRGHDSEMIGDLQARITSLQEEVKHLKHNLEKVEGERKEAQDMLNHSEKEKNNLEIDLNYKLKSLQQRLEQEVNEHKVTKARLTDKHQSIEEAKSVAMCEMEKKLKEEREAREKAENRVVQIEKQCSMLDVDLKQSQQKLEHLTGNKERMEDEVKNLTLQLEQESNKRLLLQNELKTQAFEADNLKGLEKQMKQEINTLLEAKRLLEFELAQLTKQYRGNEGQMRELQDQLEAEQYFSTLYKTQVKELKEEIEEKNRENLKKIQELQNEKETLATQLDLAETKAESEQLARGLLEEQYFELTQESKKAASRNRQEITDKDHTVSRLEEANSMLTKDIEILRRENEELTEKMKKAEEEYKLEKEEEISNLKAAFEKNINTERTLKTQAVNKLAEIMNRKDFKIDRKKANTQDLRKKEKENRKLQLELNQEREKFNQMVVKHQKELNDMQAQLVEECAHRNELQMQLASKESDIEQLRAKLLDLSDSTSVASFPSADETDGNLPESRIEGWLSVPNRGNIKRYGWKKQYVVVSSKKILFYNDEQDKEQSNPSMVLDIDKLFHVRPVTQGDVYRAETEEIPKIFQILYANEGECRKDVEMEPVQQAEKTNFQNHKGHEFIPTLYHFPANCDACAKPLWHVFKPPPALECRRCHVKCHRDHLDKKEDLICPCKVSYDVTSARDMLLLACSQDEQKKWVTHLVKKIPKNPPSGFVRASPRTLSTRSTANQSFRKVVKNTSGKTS

SMILES strings stand for the structures.

`CN(C)CCN(Cc1ccccc1)C(=O)Nc1ccc2cnccc2c1`: in assay [1], the IC50 is over 1 µM.
The same measure, in the same setting: as for `COC(=O)c1ccc(CN(CCO)C(=O)Nc2ccc3cnccc3c2)cc1`, the figure is over 1 µM.
On to `NCCN(Cc1ccc(F)cc1)C(=O)Nc1cccc2cnccc12`, for which the IC50 in assay [2] was over 1 µM.
In the case of `CN(C)CCN(Cc1ccc(Oc2ccc(C#N)cc2)cc1)C(=O)Nc1ccc2cnccc2c1`, the IC50 in assay [1] is over 1 µM.
